Results from paper PMC6934184, “Selective DNA-PKcs inhibition extends the therapeutic index of localized radiotherapy and chemotherapy” (The Journal of Clinical Investigation, 2019).

Target: T1, MYLK (MLCK) (Homo sapiens, UniProt Q15746)
T1 construct: purchased Thermo Fisher Scientific (Life Technologies) SelectScreen
Test: SelectScreen LanthaScreen
Format: binding
Conditions: read-out: % displacement
Outline: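 NU5455 was profiled across the SelectScreen Broad panel of kinase activity and binding assays. Z'LYTE reactions such as CSF1R ran at apparent Km ATP, while the Adapta CAMK1 assay used ATP listed as 10. Values are given as percent.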

T1 sequence (Q15746 whole entry): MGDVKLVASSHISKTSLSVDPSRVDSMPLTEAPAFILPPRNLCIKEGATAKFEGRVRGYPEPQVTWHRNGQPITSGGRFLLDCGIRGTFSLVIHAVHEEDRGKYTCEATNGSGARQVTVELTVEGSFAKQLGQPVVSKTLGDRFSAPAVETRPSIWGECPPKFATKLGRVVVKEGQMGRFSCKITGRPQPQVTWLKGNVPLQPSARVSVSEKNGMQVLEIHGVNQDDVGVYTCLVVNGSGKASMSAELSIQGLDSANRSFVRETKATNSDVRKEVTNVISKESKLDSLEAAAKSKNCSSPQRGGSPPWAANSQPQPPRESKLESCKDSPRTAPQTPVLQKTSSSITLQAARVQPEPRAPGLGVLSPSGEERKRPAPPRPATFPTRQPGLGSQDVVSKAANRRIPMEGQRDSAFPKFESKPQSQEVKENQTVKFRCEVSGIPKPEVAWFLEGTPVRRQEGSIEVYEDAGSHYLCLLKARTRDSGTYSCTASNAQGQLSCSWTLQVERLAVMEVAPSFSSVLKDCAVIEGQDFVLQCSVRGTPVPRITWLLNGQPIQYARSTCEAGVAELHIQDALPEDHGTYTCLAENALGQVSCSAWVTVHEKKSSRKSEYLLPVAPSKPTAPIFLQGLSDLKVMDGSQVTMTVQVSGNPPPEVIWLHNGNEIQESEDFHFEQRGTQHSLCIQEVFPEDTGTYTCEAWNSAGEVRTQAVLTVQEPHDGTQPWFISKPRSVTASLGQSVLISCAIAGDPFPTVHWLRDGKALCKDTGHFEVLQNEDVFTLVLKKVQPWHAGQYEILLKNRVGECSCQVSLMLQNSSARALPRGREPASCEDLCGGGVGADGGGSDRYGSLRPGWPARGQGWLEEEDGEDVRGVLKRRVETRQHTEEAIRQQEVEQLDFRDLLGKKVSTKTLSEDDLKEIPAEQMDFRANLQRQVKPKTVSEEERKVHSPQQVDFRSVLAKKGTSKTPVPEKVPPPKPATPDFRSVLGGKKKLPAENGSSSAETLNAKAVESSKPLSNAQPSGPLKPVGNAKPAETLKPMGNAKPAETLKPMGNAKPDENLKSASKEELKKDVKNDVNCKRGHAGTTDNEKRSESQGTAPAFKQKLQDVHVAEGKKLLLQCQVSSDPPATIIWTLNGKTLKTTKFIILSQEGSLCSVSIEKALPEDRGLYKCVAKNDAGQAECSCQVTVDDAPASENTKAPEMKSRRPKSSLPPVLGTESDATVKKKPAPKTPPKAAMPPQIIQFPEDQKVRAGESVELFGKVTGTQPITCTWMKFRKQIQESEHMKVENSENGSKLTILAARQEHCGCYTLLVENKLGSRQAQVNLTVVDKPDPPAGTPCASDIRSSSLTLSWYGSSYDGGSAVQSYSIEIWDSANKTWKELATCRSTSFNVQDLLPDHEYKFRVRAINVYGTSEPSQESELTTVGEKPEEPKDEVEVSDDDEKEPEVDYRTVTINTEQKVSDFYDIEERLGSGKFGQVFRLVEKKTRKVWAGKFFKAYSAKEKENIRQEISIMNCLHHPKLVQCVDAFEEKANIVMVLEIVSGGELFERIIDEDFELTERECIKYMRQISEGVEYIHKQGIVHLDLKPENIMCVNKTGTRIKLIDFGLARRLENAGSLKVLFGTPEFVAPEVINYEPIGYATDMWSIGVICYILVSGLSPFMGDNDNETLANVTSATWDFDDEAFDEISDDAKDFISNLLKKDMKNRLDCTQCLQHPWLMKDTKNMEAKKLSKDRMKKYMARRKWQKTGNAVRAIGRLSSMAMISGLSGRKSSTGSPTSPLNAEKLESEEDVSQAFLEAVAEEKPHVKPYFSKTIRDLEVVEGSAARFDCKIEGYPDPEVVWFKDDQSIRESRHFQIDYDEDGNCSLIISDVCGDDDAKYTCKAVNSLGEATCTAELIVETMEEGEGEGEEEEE

CN(C(=O)CN1CCOCC1)c1ccc2sc3c(-c4cccc5c(=O)cc(N6CC7CCC(C6)O7)oc45)cccc3c2c1 [NU5455]
inhibition at 1 µM: 0.2%
